Measurements as given in PubChem BioAssay AID330 (DTP/NCI, 2004).
Inconclusive results and toxic doses are left out. Square brackets hold non-standard residues; d marks the D form. Peptide text beside a SMILES is read from it. * marks the point of attachment. Cbz = O=C(OCc1ccccc1)*; Nva = CCC[CH](N)C(=O)O

System: P388 leukemia ip, CD2F1 mice, survival T/C
Experiment: NCI In Vivo Anticancer Drug Screen. Data for tumor model P388 Leukemia (intraperitoneal) in CD2F1 (CDF1) mice
Conditions: endpoint: median survival time, higher = longer survival
Summary of the method: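 Mice carrying the transplanted tumor received test compound or vehicle. Survival was recorded in each group, and the value is the treated-group measurement divided by that of the vehicle-treated control group.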

[1] = dose: 60.0 mg/kg/injection, schedule: Q01DX005 (ip), vehicle: saline with Tween-80
[2] = dose: 120.0 mg/kg/injection, schedule: Q01DX005 (ip), vehicle: saline with Tween-80
[3] = dose: 240.0 mg/kg/injection, schedule: Q01DX005 (ip), vehicle: saline with Tween-80
[4] = dose: 50.0 mg/kg/injection, schedule: Q01DX005 (ip), vehicle: saline with Tween-80
[5] = dose: 100.0 mg/kg/injection, schedule: Q01DX005 (ip), vehicle: saline with Tween-80
[6] = dose: 200.0 mg/kg/injection, schedule: Q01DX005 (ip), vehicle: saline with Tween-80
[7] = dose: 6.25 mg/kg/injection, schedule: Q01DX009 (ip), vehicle: saline with Tween-80
[8] = dose: 12.5 mg/kg/injection, schedule: Q01DX009 (ip), vehicle: saline with Tween-80
[9] = dose: 25.0 mg/kg/injection, schedule: Q01DX009 (ip), vehicle: saline with Tween-80
[10] = dose: 50.0 mg/kg/injection, schedule: Q01DX009 (ip), vehicle: saline with Tween-80
[11] = dose: 50.0 mg/kg/injection, schedule: Q01DX005 (ip), vehicle: Klucel (hydroxypropylcellulose) (HPC)
[12] = dose: 100.0 mg/kg/injection, schedule: Q01DX005 (ip), vehicle: Klucel (hydroxypropylcellulose) (HPC)
[13] = dose: 200.0 mg/kg/injection, schedule: Q01DX005 (ip), vehicle: Klucel (hydroxypropylcellulose) (HPC)
[14] = dose: 50.0 mg/kg/injection, schedule: Q01DX009 (ip), vehicle: Klucel (hydroxypropylcellulose) (HPC)
[15] = dose: 100.0 mg/kg/injection, schedule: Q01DX009 (ip), vehicle: Klucel (hydroxypropylcellulose) (HPC)
[16] = dose: 200.0 mg/kg/injection, schedule: Q01DX009 (ip), vehicle: Klucel (hydroxypropylcellulose) (HPC)
[17] = dose: 100.0 mg/kg/injection, schedule: Q04DX003 (ip), vehicle: Klucel (hydroxypropylcellulose) (HPC)
[18] = dose: 200.0 mg/kg/injection, schedule: Q04DX003 (ip), vehicle: Klucel (hydroxypropylcellulose) (HPC)
[19] = dose: 100.0 mg/kg/injection, schedule: Q01DX001 (ip), vehicle: Klucel (hydroxypropylcellulose) (HPC)
[20] = dose: 200.0 mg/kg/injection, schedule: Q01DX001 (ip), vehicle: Klucel (hydroxypropylcellulose) (HPC)
[21] = dose: 400.0 mg/kg/injection, schedule: Q01DX001 (ip), vehicle: Klucel (hydroxypropylcellulose) (HPC)
[22] = dose: 100.0 mg/kg/injection, schedule: Q01DX009 (ip), vehicle: saline with Tween-80
[23] = dose: 200.0 mg/kg/injection, schedule: Q01DX009 (ip), vehicle: saline with Tween-80

Compound: CSC(=N)c1cccc(OCCOc2ccccc2)c1
- T/C (dose: 15.0 mg/kg/injection, schedule: Q01DX005 (ip), vehicle: Klucel (hydroxypropylcellulose) (HPC)): 96 % of control
- T/C (dose: 30.0 mg/kg/injection, schedule: Q01DX005 (ip), vehicle: Klucel (hydroxypropylcellulose) (HPC)): 98 % of control
- T/C (dose: 60.0 mg/kg/injection, schedule: Q01DX005 (ip), vehicle: Klucel (hydroxypropylcellulose) (HPC)): 91 % of control
- T/C [1]: 93 % of control
- T/C (dose: 120.0 mg/kg/injection, schedule: Q01DX005 (ip), vehicle: Klucel (hydroxypropylcellulose) (HPC)): 86 % of control
- T/C [2]: 101 % of control
- T/C (dose: 240.0 mg/kg/injection, schedule: Q01DX005 (ip), vehicle: Klucel (hydroxypropylcellulose) (HPC)): 91 % of control
- T/C [3]: 99 % of control

Compound: COc1ccc2cc1Oc1ccc(cc1)CC1c3cc(OC)c(cc3CCN1C)Oc1c(O)c(OC)cc3c1C(C2)N(C)CC3 (stereo unspecified)
- T/C (dose: 3.88 mg/kg/injection, schedule: Q01DX005 (ip), vehicle: Klucel (hydroxypropylcellulose) (HPC)): 103 % of control
- T/C (dose: 7.75 mg/kg/injection, schedule: Q01DX005 (ip), vehicle: Klucel (hydroxypropylcellulose) (HPC)): 95 % of control
- T/C (dose: 15.5 mg/kg/injection, schedule: Q01DX005 (ip), vehicle: Klucel (hydroxypropylcellulose) (HPC)): 95 % of control
- T/C (dose: 31.0 mg/kg/injection, schedule: Q01DX005 (ip), vehicle: Klucel (hydroxypropylcellulose) (HPC)): 95 % of control

Compound: COc1nc2nc(Cl)cc(C)c2c2ccccc12 (tested in a mixture with another compound)
- T/C [4]: 104 % of control
- T/C [5]: 104 % of control
- T/C [6]: 92 % of control

Compound: Cc1c2oc3c(C)ccc(C(=O)OCCN4CCCCC4)c3nc-2c(C(=O)OCCN2CCCCC2)c(N)c1=O
- T/C [7]: 100 % of control
- T/C [8]: 99 % of control
- T/C [9]: 107 % of control
- T/C [10]: 113 % of control

Compound: C[Si](C)(C)N=S1(=N[Si](C)(C)C)CCCC1
- T/C (dose: 50.0 mg/kg/injection, schedule: Q01DX005 (ip), vehicle: olive oil, sesame oil, peanut oil): 109 % of control
- T/C (dose: 100.0 mg/kg/injection, schedule: Q01DX005 (ip), vehicle: olive oil, sesame oil, peanut oil): 109 % of control
- T/C (dose: 200.0 mg/kg/injection, schedule: Q01DX005 (ip), vehicle: olive oil, sesame oil, peanut oil): 114 % of control

Compound: Nc1ccccc1C(=O)N/N=C/c1cccnc1
- T/C [11]: 100 % of control
- T/C [12]: 98 % of control
- T/C [13]: 98 % of control

Compound: CCCCN1C(=O)c2ccc(N)cc2C1=O
- T/C [14]: 100 % of control
- T/C [15]: 97 % of control
- T/C [16]: 110 % of control

Compound: CCCCCCCCCCCC(=O)OOC(C)(C)C
- T/C [1]: 100 % of control
- T/C [2]: 102 % of control
- T/C [3]: 97 % of control

Compound: C[C@]12CC(=O)O[C@@H](C[C@H]1OC(=O)c1ccccc1)[C@@]21CO1
- T/C (dose: 1.0 mg/kg/injection, schedule: Q04DX002 (ip), vehicle: distilled water + Tween-80): 102 % of control
- T/C (dose: 2.0 mg/kg/injection, schedule: Q04DX002 (ip), vehicle: distilled water + Tween-80): 103 % of control
- T/C (dose: 4.0 mg/kg/injection, schedule: Q04DX002 (ip), vehicle: distilled water + Tween-80): 100 % of control
- T/C (dose: 8.0 mg/kg/injection, schedule: Q04DX002 (ip), vehicle: distilled water + Tween-80): 94 % of control
- T/C (dose: 16.0 mg/kg/injection, schedule: Q04DX002 (ip), vehicle: distilled water + Tween-80): 100 % of control

Compound: O=C1c2ccccc2C(=O)N1/N=[N+](\[O-])N1CCOCC1
- T/C (dose: 25.0 mg/kg/injection, schedule: Q01DX005 (ip), vehicle: Klucel (hydroxypropylcellulose) (HPC)): 90 % of control
- T/C [11]: 99 % of control
- T/C [12]: 90 % of control
- T/C [13]: 101 % of control

Compound: Cc1c(Cl)c(Cl)nn1C(C)C(=O)N(C)C (stereo unspecified)
- T/C [17]: 95 % of control
- T/C [18]: 95 % of control

Compound: C=CC(C)(C)C1Oc2cc(OC)ccc2C(=O)C1c1ccc(OC)c(OC)c1O (stereo unspecified)
- T/C [17]: 99 % of control
- T/C [18]: 98 % of control
- T/C (dose: 400.0 mg/kg/injection, schedule: Q04DX003 (ip), vehicle: Klucel (hydroxypropylcellulose) (HPC)): 96 % of control

Compound: Nc1ccc2nc3ccccc3c(NCCCCCCCCNc3c4ccccc4nc4ccc(N)cc34)c2c1
- T/C (dose: 2.5 mg/kg/injection, schedule: Q01DX009 (ip), vehicle: water): 160 % of control
- T/C (dose: 5.0 mg/kg/injection, schedule: Q01DX009 (ip), vehicle: water): 160 % of control

Compound: O=C(NC(Cc1ccc(O)cc1)C(=O)NC(Cc1c[nH]c2ccccc12)C(=O)O)OCc1ccccc1 (stereo unspecified)
- T/C [4]: 106 % of control
- T/C [5]: 103 % of control
- T/C [6]: 106 % of control

Compound: O=c1ssc2ncccc12
- T/C [1]: 104 % of control
- T/C [2]: 103 % of control
- T/C [3]: 117 % of control

Compound: Cc1ccc(S(=O)(=O)C23N=NC(C)(C)C2C2CC3C3CN=NC32)cc1 (stereo unspecified)
- T/C [19]: 103 % of control
- T/C [20]: 109 % of control
- T/C [21]: 102 % of control

Compound: CN1C(=O)CCC1c1nc2ccccc2[nH]1 (stereo unspecified)
- T/C [1]: 102 % of control
- T/C [2]: 101 % of control
- T/C [3]: 96 % of control

Compound: COc1cc(Cl)ccc1NC(=O)Oc1cc(C)c(I)cc1C
- T/C [10]: 104 % of control
- T/C [22]: 100 % of control
- T/C [23]: 88 % of control

Compound: CCN(CC)C(Cl)=Nc1ccc(Cl)cc1
- T/C [14]: 94 % of control
- T/C [15]: 100 % of control
- T/C [16]: 94 % of control

Compound: COc1cc(C(=O)CCCC(=O)O)cc(OC)c1OC
- T/C [10]: 96 % of control
- T/C [22]: 92 % of control
- T/C [23]: 88 % of control

Compound: COc1ccc(-c2nn(C)c3c2C(=O)CCC3)cc1OC
- T/C [17]: 94 % of control
- T/C [18]: 99 % of control

Compound: CC(Cl)CN1CCOC1=O (stereo unspecified)
- T/C (dose: 12.5 mg/kg/injection, schedule: Q01DX001 (ip), vehicle: saline): 106 % of control
- T/C (dose: 25.0 mg/kg/injection, schedule: Q01DX001 (ip), vehicle: saline): 96 % of control
- T/C (dose: 50.0 mg/kg/injection, schedule: Q01DX001 (ip), vehicle: saline): 105 % of control
- T/C (dose: 100.0 mg/kg/injection, schedule: Q01DX001 (ip), vehicle: saline): 102 % of control

Compound: O=Cc1ccc(C(Cl)(Cl)Cl)cc1
- T/C [10]: 123 % of control
- T/C (dose: 264.0 mg/kg/injection, schedule: Q04DX003 (ip), vehicle: saline with Tween-80): 109 % of control
- T/C (dose: 400.0 mg/kg/injection, schedule: Q04DX003 (ip), vehicle: saline with Tween-80): 159 % of control

Compound: CC(=N/NC(=S)NCCN1CCCC1)/C(C)=N\NC(=S)NCCN1CCCC1
- T/C (dose: 6.25 mg/kg/injection, schedule: Q04DX003 (ip), vehicle: saline with Tween-80): 117 % of control
- T/C (dose: 12.5 mg/kg/injection, schedule: Q04DX003 (ip), vehicle: saline with Tween-80): 98 % of control
- T/C (dose: 25.0 mg/kg/injection, schedule: Q04DX003 (ip), vehicle: saline with Tween-80): 100 % of control

Compound: Cc1ccc(S(=O)(=O)OCC(C)(C)COS(=O)(=O)c2ccc(C)cc2)cc1
- T/C (dose: 3.13 mg/kg/injection, schedule: Q01DX009 (ip), vehicle: saline with Tween-80): 103 % of control
- T/C [7]: 103 % of control
- T/C [8]: 105 % of control
- T/C [9]: 106 % of control

Compound: CCCC(NC(=O)OCc1ccccc1)C(=O)NC(CC(C)C)C(=O)O (stereo unspecified) (Cbz-[Nva]-Leu-OH; configuration not given here)
- T/C [11]: 112 % of control
- T/C [12]: 100 % of control
- T/C [13]: 106 % of control

Compound: CCOC(=O)C1(C(=O)O)CCCN(C(=O)OCc2ccccc2)C1Cc1ccccc1 (stereo unspecified)
- T/C [19]: 99 % of control
- T/C [20]: 102 % of control
- T/C [21]: 93 % of control

Compound: CC1C(=O)OC2C1CCC1(C)CCC(=O)C(C)C21 (stereo unspecified)
- T/C (dose: 100.0 mg/kg/injection, schedule: Q04DX002 (ip), vehicle: saline with Tween-80): 101 % of control
